Experimental findings from ChEMBL document CHEMBL1136411, “Imidazo[4,5-b]pyridines as corticotropin releasing factor receptor ligands” (Bioorg Med Chem Lett, 2003) are described below.

Data set [1] concerns the target T1, Corticotropin releasing factor receptor (Rattus norvegicus, UniProt P47866+P35353). Briefly: In vitro binding affinity to the CRF receptor in rat cortical homogenates.
For a further data set, the system named is Rattus norvegicus. Briefly: Anxiolytic efficacy in rat after peroral administration. Type of data set: functional. As to conditions: po.
Data set [2] can be described thus: Half life was determined. Type of data set: ADME, organism-based, Canis lupus familiaris. As to conditions: dog, in vivo.
Data set [3] in a line: Maximal plasma concentration at a dose of 1 mg/kg. Type of data set: ADME, organism-based, Canis lupus familiaris. Set-up: dose 1 mg/kg. The following applies: dog.
In data set [4] the target is T1, Corticotropin releasing factor receptor. Briefly: In vitro binding affinity against Corticotropin releasing factor receptor in rat cortical homogenates.
The test system of another data set is Canis familiaris. Briefly: Area under the curve at a dose of 1 mg/kg. Format: ADME, organism-based, Canis lupus familiaris. The arrangement: dose 1 mg/kg. The following applies: dog, in vivo.

One may read the Ki as the dissociation constant of the complex between target and ligand, obtained from inhibition or displacement. Read a low Ki as higher affinity. What is called ED50 is the dose that gives a 50% effect, or the effect in half of the subjects. Read a low ED50 as an effect at a small dose. A word on the half-life: it is the time in which the quantity being followed falls by half. Higher therefore signals slow decline. A word on the Cmax: it is the peak of the concentration-time curve. As usually defined, the AUC is concentration integrated over time. The low end stands for low exposure, the high end for high exposure.

In data set [1], `CCc1nc2c(-c3ccc(C(F)(F)F)cc3Cl)ncnc2n1C(C1CC1)C1CC1` showed a Ki of 1.8 nM.

In turn, `CCC(CCOC)n1c(OC)nc2c(-c3ccc(OC(F)(F)F)cc3Cl)ccnc21` (stereo unspecified) displayed a Ki in data set [1] of 1.9 nM.

Compound `CCc1nc2c(-c3ccc(Cl)cc3Cl)ccnc2n1[C@H](CC)C1CC1` showed a Ki in data set [1] of 0.2 nM.

`CCCC(C)n1c(CC)nc2c(-c3ccc(C(C)OC)cc3Cl)ccnc21` (stereo unspecified) displayed an inhibition constant Ki in data set [1] of 3.5 nM. Turning to `CCc1nc2c(-c3ccc(Cl)cc3Cl)ccnc2n1[C@@H](CC)C1CC1`, the inhibitory constant (Ki) in data set [1] was 0.4 nM.

`CCCC(C)n1c(CC)nc2c(-c3ccc(OC)cc3C)ccnc21` (stereo unspecified) showed a Ki in data set [1] of 0.8 nM. The same measure, in the same setting: under `CCC(CCOC)n1c(COC)nc2c(-c3ccc(C(F)(F)F)cc3Cl)ccnc21` (stereo unspecified) stands 82.7 nM; under `CCCC(C)n1c(CC)nc2c(-c3ccc(S(C)(=O)=O)cc3C(F)(F)F)ccnc21` (stereo unspecified), 6.8 nM; under `CCCC(C)n1c(CC)nc2c(-c3ccc(/C(C)=N\OC)cc3Cl)ccnc21` (stereo unspecified), 2.3 nM. `CCCC(C)n1c(CC)nc2c(-c3ccc(C(C)=O)cc3Cl)ccnc21` (stereo unspecified): the Ki in data set [1] turned out to be 1 nM. Same read-out and setting: then `CCCC(C)n1c(CC)nc2c(-c3cc(C)c(OC)cc3C)ccnc21` (stereo unspecified), with 0.6 nM.

On to `CCc1nc2c(-c3ccc(Cl)cc3Cl)ccnc2n1C(CCOC)C1CCC1` (stereo unspecified), for which the Ki in data set [1] is listed as 2.4 nM. Same read-out and setting: under `CCc1nc2c(-c3ccc(Cl)cc3Cl)ccnc2n1C(C)C1CCC1` (stereo unspecified) stands 1 nM. The same measure, in the same setting: under `CCC(CCOC)n1c(C2CC2)nc2c(-c3ccc(C(F)(F)F)cc3Cl)ccnc21` (stereo unspecified) stands 20.8 nM. As to `CCc1nc2c(-c3ccc(OC(F)F)cc3Cl)ccnc2n1C(C)C1CCC1` (stereo unspecified), the ED50 in the data set on Rattus norvegicus is < 3 mg/kg. In addition, the half-life in data set [2] was 10 h. Besides, in data set [3], the concentration peaked (Cmax) at 185 nM. The compound further returned a Ki in data set [4] of 0.7 nM. The compound further returned an AUC in the data set with Canis familiaris of 0.795 µM·h. For `CCc1nc2c(-c3ccc(Cl)cc3Cl)ccnc2n1C(CC)CC`, the Ki in data set [1] turned out to be 1 nM. This counts as single-digit nanomolar. With `CCCC(C)n1c(CC)nc2c(-c3ccc(Cl)cc3C(C)=O)ccnc21` (stereo unspecified), the inhibition constant Ki in data set [1] was 95.6 nM. This Ki is about 96-fold higher than that of the compound before. Still for that read-out and setting: under `CCc1nc2c(-c3ccc(Cl)cc3Cl)ccnc2n1C(CCOC)C1CC1` (stereo unspecified) stands 1.5 nM; under `CCCC(C)n1c(CC)nc2c(-c3cc(F)c(F)cc3Cl)ccnc21` (stereo unspecified), 2.4 nM; under `CCc1nc2c(-c3ccc(Cl)cc3Cl)ccnc2n1C(C)CC` (stereo unspecified), 1.3 nM. Same read-out and setting: then `CCc1nc2c(-c3ccc(Cl)cc3Cl)ccnc2n1[C@H](C)C1CC1`, with 0.6 nM.

In the case of `CCCC(C)n1c(CC)nc2c(-c3ccc(OC)cc3C(F)(F)F)ccnc21` (stereo unspecified), in the data set on Rattus norvegicus, the ED50 turned out to be 3 mg/kg. Moreover, the half-life in data set [2] was 5.9 h. The Cmax in data set [3] came out at 62 nM. For the same compound, the Ki in data set [1] amounted to 0.74 nM; in data set [4], 0.7 nM. The same compound registered an exposure (AUC) in the data set with Canis familiaris of 0.182 µM·h. The compound `CCCC(C)n1c(CC)nc2c(-c3ccc(SC)cc3C(F)(F)F)ccnc21` (stereo unspecified) gave a Ki in data set [1] of 1.4 nM. This counts as single-digit nanomolar.

For the compound `CCCC(C)n1c(CC)nc2c(-c3ccc(C(C)O)cc3Cl)ccnc21` (stereo unspecified), the Ki in data set [1] stood at 5.1 nM. Compared with the last compound, the Ki is about 3.6-fold higher. `CCCC(C)n1c(C(F)F)nc2c(-c3ccc(Cl)cc3Cl)ccnc21` (stereo unspecified): in data set [1], the Ki turned out to be 15.8 nM. For `CCc1nc2c(-c3ccc(C(F)(F)F)cc3Cl)ccnc2n1C(CC)COC` (stereo unspecified), in data set [1], the inhibition constant (Ki) came to 4.7 nM. Take `CCCC(C)n1c(CC)nc2c(-c3ccc(C(F)(F)F)cc3Cl)ccnc21` (stereo unspecified): the 50% effective dose (ED50) in the data set with Rattus norvegicus is 3 mg/kg. Besides, the half-life in data set [2] is 4.9 h. Also, the Cmax in data set [3] worked out at 159 nM. Besides, the inhibition constant Ki in data set [1] and in data set [4] was 1.1 nM each time. The compound also had an exposure (AUC) in the data set on Canis familiaris of 0.604 µM·h.
